Test results taken from patent publication US10633389B2, “CARM1 inhibitors and uses thereof” (Epizyme, Inc., priority 2013, dated 2020).

How the values were obtained:
[1] = tested on: asymmetric di-methyl PABP1 in RKO cells; experiment: RKO methylation assay, In Cell Western (ICW) for asymmetric di-methyl PABP1; assay type: cell-based; details: Homo sapiens, RKO, Cellular potencies, ICW PABP1me2a
Method in brief: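 RKO cells treated with compound for 48 h at 37 °C, then fixed, permeabilized and immunostained for asymmetric di-methyl PABP1, with DRAQ5 as DNA stain. Infrared 700/800 nm signal ratio normalized to DMSO and 20 μM reference-compound controls; IC50 from triplicate wells.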

[2] = target: human CARM1 (PRMT4) (Homo sapiens (Human), UniProt Q86X55); experiment: CARM1 enzyme assay on peptide substrate (3H-SAM Flashplate); details: Biochemical potencies, read-out: Biochem IC50
human CARM1 (PRMT4), sequence (Q86X55 other isoform, or with tags, fused parts or gaps isoform Q86X55-1): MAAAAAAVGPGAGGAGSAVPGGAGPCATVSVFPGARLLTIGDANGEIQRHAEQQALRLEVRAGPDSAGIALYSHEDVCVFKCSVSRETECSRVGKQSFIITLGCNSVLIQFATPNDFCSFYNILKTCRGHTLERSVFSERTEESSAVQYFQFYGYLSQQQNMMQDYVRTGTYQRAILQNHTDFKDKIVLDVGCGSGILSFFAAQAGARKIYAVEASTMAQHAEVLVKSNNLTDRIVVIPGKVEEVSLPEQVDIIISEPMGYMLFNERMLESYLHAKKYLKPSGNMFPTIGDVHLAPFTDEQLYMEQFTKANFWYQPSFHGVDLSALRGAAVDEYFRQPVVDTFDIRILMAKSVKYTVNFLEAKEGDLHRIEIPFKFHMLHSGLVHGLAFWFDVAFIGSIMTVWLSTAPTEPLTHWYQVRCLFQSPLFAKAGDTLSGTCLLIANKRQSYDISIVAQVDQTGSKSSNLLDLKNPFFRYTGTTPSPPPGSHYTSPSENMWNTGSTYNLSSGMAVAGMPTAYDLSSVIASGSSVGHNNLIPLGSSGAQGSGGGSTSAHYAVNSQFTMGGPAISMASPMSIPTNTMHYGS
Description: S-adenosylmethionine (SAM), S-adenosylhomocysteine (SAH), bicine, Tween20, dimethylsulfoxide (DMSO), bovine skin gelatin (BSG), sodium butyrate and Tris(2-carboxyethyl)phosphine hydrochloride solution (TCEP) were purchased from Sigma-Aldrich at the highest level of purity possible. ^3H-SAM was purchase from American Radiolabeled Chemicals with a specific activity of 80 Ci/mmol. 384-well streptavidin Flashplates were purchased from PerkinElmer.
Peptide representative of human histone H3 residues 16-30 was synthesized with an N-terminal linker-affinity tag motif and a C-terminal amide cap by 21st Century Biochemicals. […] The sequence was Biot-Ahx-[…]-amide and contained a monomethylated arginine at position 26 (SEQ ID NO.:1).
The gene sequence encoding isoform 1 containing a deletion of amino acids 539-561 was amplified subsequently and subcloned into pFastBacMam (Viva Biotech).
Recombinant baculovirus were generated according to Bac-to-Bac kit instructions (Life Technologies). Protein over-expression was accomplished by infecting exponentially growing HEK 293F cell culture at 1.3×10^6 cell/ml with virus (MOI=10) in the presence of 8 mM sodium butyrate. Infections were carried out at 37° C. for 48 hours, harvested by centrifugation, and stored at −80° C. for purification.
Expressed full-length human Flag- and His-tagged CARM1 protein was purified from cell paste by anti-flag M2 affinity chromatography with resin equilibrated with buffer containing 20 mM Tris, 150 mM NaC, 5% glycerol, pH 7.8. Column was washed with 500 mM NaCl in buffer A and Flag-CARM1-His was eluted with 200 ug/ml FLAG peptide in buffer A. Pooled fractions were dialyzed in 20 mM Tris, 150 mM NaCl, 5% glycerol and 1 mM DTT, pH 7.8.
The assays were all performed in a buffer consisting of 20 mM Bicine (pH=7.6), 1 mM TCEP, 0.005% BSG, and 0.002% Tween 20, prepared on the day of use. Compounds in 100% DMSO (1 ul) were spotted into a polypropylene 384-well V-bottom plates (Greiner) using a Platemate Plus outfitted with a 384-channel head (Thermo Scientific). DMSO (1 ul) was added to Columns 11, 12, 23, 24, rows A-H for the maximum signal control and 1 ul of SAH, a known product and inhibitor of CARM1, was added to columns 11, 12, 23, 24, rows I-P for the minimum signal control. A cocktail (40 ul) containing the CARM1 enzyme was added by Multidrop Combi (Thermo-Fisher). The compounds were allowed to incubate with CARM1 for 30 min at room temperature, then a cocktail (10 ul) containing ^3H-SAM and peptide was added to initiate the reaction (final volume=51 ul). The final concentrations of the components were as follows: CARM1 was 0.25 nM, ^3H-SAM was 30 nM, peptide was 250 nM, SAH in the minimum signal control wells was 1 mM, and the DMSO concentration was 2%. The assays were stopped by the addition of non-radiolabeled SAM (10 ul) to a final concentration of 300 uM, which dilutes the ^3H-SAM to a level where its incorporation into the peptide substrate is no longer detectable. 50 ul of the reaction in the 384-well polypropylene plate was then transferred to a 384-well Flashplate and the biotinylated peptides were allowed to bind to the streptavidin surface for at least 1 hour before being washed once with 0.1% Tween20 in a Biotek ELx405 plate washer. The plates were then read in a PerkinElmer TopCount plate reader to measure the quantity of ^3H-labeled peptide bound to the Flashplate surface, measured as disintegrations per minute (dpm) or alternatively, referred to as counts per minute (cpm).
The Hill Coefficient normally allowed to float but may also be fixed at 1 in a 3-parameter fit.

IC50 [1] [nM]	IC50 [2] [nM]	Compound
5000 to 10000	100 to 1000	CNCC(O)COc1cccc(-c2nc(NC3CCOC3)c(C)c(N3CCC4(CCCO4)CC3)n2)c1 (stereo not shown) [Example 420-1a]
10000 to 20000	100 to 1000	CNCC(O)COc1cccc(-c2nc(N[C@@H]3CCOC3)c(C)c(N3CCN(C(C)=O)C4(CC4)C3)n2)c1 (stereo partly shown) [Example 423-1a]
10000 to 20000	100 to 1000	CNCC(O)COc1cccc(-c2nc(N[C@@H]3CCOC3)c(C)c(N(CCC#N)C3CC3)n2)c1 (stereo partly shown) [Example 426-1a]
10000 to 20000	100 to 1000	CNCC(O)COc1cccc(-c2nc(N[C@@H]3CCOC3)c(C)c(N3CCNC(C(F)(F)F)C3)n2)c1 (stereo partly shown) [Example 428-1a]
10000 to 20000	100 to 1000	CNCC(O)COc1cccc(-c2nc(N[C@@H]3CCOC3)c(C)c(N3CC[C@H](N(C)C(C)=O)C3)n2)c1 (stereo partly shown) [Example 430-1a]
10000 to 20000	100 to 1000	CNCC(O)COc1cccc(-c2nc(NC3CCOC3)c(C)c(N3CC[C@H](S(C)(=O)=O)C3)n2)c1 (stereo partly shown) [Example 431-1a]
10000 to 20000	100 to 1000	CNCC(O)COc1cc(OC)cc(-c2nc(NC3CCOC3)c(C)c(N3CCN(C(C)=O)[C@@H](C)C3)n2)c1 (stereo partly shown) [Example 432-1a]
5000 to 10000	100 to 1000	CNCC(O)COc1cccc(-c2nc(N[C@@H]3CCOC3)c(F)c(N3CCOCC3)n2)c1 (stereo partly shown) [Example 433-1a]
10000 to 20000	100 to 1000	CNCC(O)COc1cccc(-c2nc(N[C@@H]3CCOC3)c(C)c(N3CCN(C(C)=O)CC34CC4)n2)c1 (stereo partly shown) [Example 438-1a]
10000 to 20000	100 to 1000	CNCC(O)COc1cccc(-c2nc(N[C@@H]3CCOC3)c(C)c(N3CCC[C@@H]3C(=O)NC)n2)c1 (stereo partly shown) [Example 450-1a]
10000 to 20000	100 to 1000	CNCC(O)COc1cccc(-c2nc(N[C@@H]3CCOC3)c(C)c(-c3cnccn3)n2)c1 (stereo partly shown) [Example 451-1a]
5000 to 10000	100 to 1000	CNC[C@@H](O)COc1cccc(-c2nc(N[C@@H]3CCOC3)c(C)c(-c3cn(S(C)(=O)=O)c4ncncc34)n2)c1 [Example 453-1a]
10000 to 20000	100 to 1000	CNCC(O)COc1cccc(-c2nc(N[C@@H]3CCOC3)c(C)c(-c3ccnnc3)n2)c1 (stereo partly shown) [Example 459-1a]
10000 to 20000	100 to 1000	CNCC(O)COc1cccc(-c2nc(N[C@@H]3CCOC3)c(C)c(-c3c(C)ncnc3C)n2)c1 (stereo partly shown) [Example 460-1a]
10000 to 20000	100 to 1000	CNCC(O)COc1cccc(-c2nc(N[C@@H]3CCOC3)c(C)c(N3CCCC3c3nc(C)no3)n2)c1 (stereo partly shown) [Example 472-1a]
< 5000	100 to 1000	CNCC(O)COc1cccc(-c2nc(N3CCCC4(CCOCC4)C3)cc(N(C)C3CCOCC3)n2)c1 (stereo not shown) [Example 494-1a]
< 5000	100 to 1000	CCS(=O)(=O)N1CCN(c2cc(N(C)C3CCOCC3)nc(-c3cccc(OCC(O)CNC)c3)n2)C[C@@H]1C (stereo partly shown) [Example 497-1a]
5000 to 10000	100 to 1000	CNCC(O)COc1cccc(-c2nc(C3CCN(C(=O)N(C)C)CC3)cc(N(C)C3CCOCC3)n2)c1 (stereo not shown) [Example 515-1a]
5000 to 10000	100 to 1000	CNCC(O)COc1cccc(-c2nc(N3CCN(CC(F)F)CC3)cc(N(C)C3CCOCC3)n2)c1 (stereo not shown) [Example 518-1a]
5000 to 10000	100 to 1000	CNCC(O)COc1cccc(-c2nc(N3CCN(S(C)(=O)=O)[C@@H](C)C3)cc(N(C)C3CCOCC3)n2)c1 (stereo partly shown) [Example 520-1a]
5000 to 10000	100 to 1000	CNCC(O)COc1cccc(-c2nc(N3CCN(C(C)=O)C4(CC4)C3)cc(N(C)C3CCOCC3)n2)c1 (stereo not shown) [Example 523-1a]
5000 to 10000	100 to 1000	CNCC(O)COc1cccc(-c2nc(C3CCN(S(C)(=O)=O)CC3)cc(N(C)C3CCOCC3)n2)c1 (stereo not shown) [Example 527-1a]

IC50 [1] [nM]	IC50 [2] [nM]	Compound
5000 to 10000	100 to 1000	CNCC(O)COc1cccc(-c2nc(C(=O)NC3CCOCC3)cc(N(C)C3CCOCC3)n2)c1 (stereo not shown) [Example 530-1a]
5000 to 10000	100 to 1000	CNCC(O)COc1cccc(-c2nc(N(C)c3cnc(OC)nc3)cc(N(C)C3CCOCC3)n2)c1 (stereo not shown) [Example 532-1a]
5000 to 10000	100 to 1000	CNCC(O)COc1cccc(-c2nc(C3CCN(C(=O)OC)CC3)cc(N(C)C3CCOCC3)n2)c1 (stereo not shown) [Example 533-1a]
5000 to 10000	100 to 1000	CNCC(O)COc1cccc(-c2nc(-c3c(C)n[nH]c3C)cc(N(C)C3CCOCC3)n2)c1 (stereo not shown) [Example 534-1a]
5000 to 10000	100 to 1000	CNCC(O)COc1cccc(-c2nc(-c3ccnc(C(=O)N(C)C)c3)cc(N(C)C3CCOCC3)n2)c1 (stereo not shown) [Example 535-1a]
10000 to 20000	100 to 1000	CNCC(O)COc1cccc(-c2nc(N3C[C@@H]4CCCN(C(C)=O)[C@@H]4C3)cc(N(C)C3CCOCC3)n2)c1 (stereo partly shown) [Example 539-1a]
10000 to 20000	100 to 1000	CNCC(O)COc1cccc(-c2nc(NCC3CCOCC3)cc(N(C)C3CCOCC3)n2)c1 (stereo not shown) [Example 540-1a]
10000 to 20000	100 to 1000	CNCC(O)COc1cccc(-c2nc(N(C)C3CCOCC3)c(C)c(C(C)(C)O)n2)c1 (stereo not shown) [Example 545-1a]
10000 to 20000	100 to 1000	CNCC(O)COc1cccc(-c2nc(C3CCN(C(C)=O)CC3)cc(N(C)C3CCOCC3)n2)c1 (stereo not shown) [Example 546-1a]
10000 to 20000	100 to 1000	CNCC(O)COc1cccc(-c2nc(N3CC[C@H](N(C)C(C)=O)C3)cc(N(C)C3CCOCC3)n2)c1 (stereo partly shown) [Example 547-1a]
10000 to 20000	100 to 1000	CNCC(O)COc1cccc(-c2nc(-c3ncc[nH]3)cc(N(C)C3CCOCC3)n2)c1 (stereo not shown) [Example 550-1a]
10000 to 20000	100 to 1000	CNCC(O)COc1cccc(-c2nc(Nc3ncc(OC)cn3)cc(N(C)C3CCOCC3)n2)c1 (stereo not shown) [Example 551-1a]
10000 to 20000	100 to 1000	CNCC(O)COc1cccc(-c2nc(N(C)C3CCOCC3)cc(N3CCN(C(C)=O)CC34CC4)n2)c1 (stereo not shown) [Example 552-1a]
10000 to 20000	100 to 1000	CNCC(O)COc1cccc(-c2nc(N3CC4(CCOCC4)C3)cc(N(C)C3CCOCC3)n2)c1 (stereo not shown) [Example 553-1a]
10000 to 20000	100 to 1000	CNCC(O)COc1cccc(-c2nc(C(=O)NC)cc(N(C)C3CCOCC3)n2)c1 (stereo not shown) [Example 554-1a]
10000 to 20000	100 to 1000	CNCC(O)COc1cccc(-c2nc(Nc3c(C)nn(C)c3C)cc(N(C)C3CCOCC3)n2)c1 (stereo not shown) [Example 555-1a]
10000 to 20000	100 to 1000	CNCC(O)COc1cccc(-c2nc(-c3c(C)ncnc3C)cc(N(C)C3CCOCC3)n2)c1 (stereo not shown) [Example 556-1a]
10000 to 20000	100 to 1000	CNCC(O)COc1cc(Cl)cc(-c2nc(C(=O)N(C)C)cc(N(C)C3CCOCC3)n2)c1 (stereo not shown) [Example 557-1a]
10000 to 20000	100 to 1000	CNCC(O)COc1cccc(-c2nc(N3CCC4(CCOC4)CC3)cc(N(C)C3CCOCC3)n2)c1 (stereo not shown) [Example 582-1a]
10000 to 20000	100 to 1000	CNCC(O)COc1cccc(-c2nc(-c3nccn3C)cc(N(C)C3CCOCC3)n2)c1 (stereo not shown) [Example 583-1a]
10000 to 20000	100 to 1000	CNCC(O)COc1cccc(-c2nc(NCC3(CCl)CCOCC3)cc(N(C)C3CCOCC3)n2)c1 (stereo not shown) [Example 584-1a]
10000 to 20000	100 to 1000	CNCC(O)COc1cccc(-c2nc(N3CCN(C(=O)OC)CC3)cc(N(C)C3CCOCC3)n2)c1 (stereo not shown) [Example 585-1a]
